Source: ChEMBL document CHEMBL1136340, “Indole-2-carboxamides as novel NR2B selective NMDA receptor antagonists” (Bioorg Med Chem Lett, 2003)

How the values were obtained:
[1] = biological target: Glutamate [NMDA] receptor; experiment: Inhibition of [3H]Ro-256981 binding to N-methyl-D-aspartate glutamate receptor; type: protein-complex assay
[2] = biological target: Glutamate NMDA receptor; GRIN1/GRIN2B (Homo sapiens, UniProt Q05586+Q13224); experiment: Inhibition of N-methyl-D-aspartate glutamate receptor-evoked increase of intracellular Ca+ in cells expressing NMDA glutamate receptor 1/2B; type: functional, cell-based
Sequence of Glutamate NMDA receptor; GRIN1/GRIN2B (Q13224 whole entry, other chains not shown): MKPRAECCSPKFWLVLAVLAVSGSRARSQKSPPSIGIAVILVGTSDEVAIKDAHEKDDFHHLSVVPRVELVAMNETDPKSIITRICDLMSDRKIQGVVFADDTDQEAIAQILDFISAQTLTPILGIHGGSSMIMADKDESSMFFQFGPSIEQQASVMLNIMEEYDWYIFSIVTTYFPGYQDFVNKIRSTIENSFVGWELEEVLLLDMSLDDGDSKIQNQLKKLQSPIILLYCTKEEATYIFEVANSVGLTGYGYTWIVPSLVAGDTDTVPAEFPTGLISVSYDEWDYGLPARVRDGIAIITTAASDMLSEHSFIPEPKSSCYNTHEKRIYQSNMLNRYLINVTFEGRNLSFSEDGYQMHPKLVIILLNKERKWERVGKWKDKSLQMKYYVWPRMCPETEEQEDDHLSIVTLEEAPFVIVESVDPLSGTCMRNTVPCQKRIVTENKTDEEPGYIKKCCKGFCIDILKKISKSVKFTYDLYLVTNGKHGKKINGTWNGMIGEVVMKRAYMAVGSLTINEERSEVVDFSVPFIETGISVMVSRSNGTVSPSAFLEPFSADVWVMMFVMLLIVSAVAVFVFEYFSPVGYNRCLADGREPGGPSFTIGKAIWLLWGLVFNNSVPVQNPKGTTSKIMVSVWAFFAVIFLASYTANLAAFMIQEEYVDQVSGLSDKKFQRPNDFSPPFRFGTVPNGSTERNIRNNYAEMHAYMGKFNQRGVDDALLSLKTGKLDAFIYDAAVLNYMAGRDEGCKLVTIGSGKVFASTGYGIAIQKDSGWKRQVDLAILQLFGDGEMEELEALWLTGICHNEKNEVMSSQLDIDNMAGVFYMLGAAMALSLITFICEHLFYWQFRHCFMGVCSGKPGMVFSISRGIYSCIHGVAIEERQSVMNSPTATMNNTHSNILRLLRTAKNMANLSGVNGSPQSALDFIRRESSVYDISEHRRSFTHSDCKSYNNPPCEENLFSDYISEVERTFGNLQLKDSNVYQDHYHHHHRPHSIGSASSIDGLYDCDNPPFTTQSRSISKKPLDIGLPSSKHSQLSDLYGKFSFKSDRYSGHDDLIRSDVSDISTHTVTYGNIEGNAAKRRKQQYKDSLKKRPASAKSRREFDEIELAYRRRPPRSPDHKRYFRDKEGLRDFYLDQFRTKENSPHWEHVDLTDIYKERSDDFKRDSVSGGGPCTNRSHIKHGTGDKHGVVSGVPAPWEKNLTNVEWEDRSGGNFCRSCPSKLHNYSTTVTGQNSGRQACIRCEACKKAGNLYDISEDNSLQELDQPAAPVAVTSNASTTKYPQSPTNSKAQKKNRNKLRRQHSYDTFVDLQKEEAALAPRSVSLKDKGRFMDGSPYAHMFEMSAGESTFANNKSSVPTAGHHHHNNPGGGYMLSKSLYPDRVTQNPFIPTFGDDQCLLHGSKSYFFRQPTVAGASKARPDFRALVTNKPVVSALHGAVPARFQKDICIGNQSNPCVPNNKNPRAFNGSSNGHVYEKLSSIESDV

Row | IC50 [1] [µM] | IC50 [2] [µM] | SMILES
1 | 0.018 | 0.039 | O=C(c1cc2c(O)cccc2[nH]1)N1CCC(Cc2ccccc2)CC1
2 | 0.006 | 0.01 | O=C(c1cc2c(O)cc(O)cc2[nH]1)N1CCC(Cc2ccccc2)CC1
3 | 0.106 | 0.052 | O=C(c1cc2cc(O)cc(O)c2[nH]1)N1CCC(Cc2ccccc2)CC1
4 | 0.012 | 0.02 | O=C(c1cc2ccc(O)cc2[nH]1)N1CCC(Cc2ccccc2)CC1
5 | 0.031 | 0.04 | O=C(c1cc2cc(O)ccc2[nH]1)N1CCC(Cc2ccccc2)CC1
6 | 0.006 | 0.057 | C[C@@H](CN1CCC(Cc2ccccc2)CC1)[C@@H](O)c1ccc(O)cc1
7 | 0.38 | 0.077 | O=C(c1cc2cccc(O)c2[nH]1)N1CCC(Cc2ccccc2)CC1
8 | 0.359 | 0.024 | O=C(c1cc2ccc(O)cc2[nH]1)N1CCC(CCc2ccccc2)CC1
9 | 0.047 | 0.046 | O=C(c1cc2ccc(O)cc2[nH]1)N1CCC(OCc2ccccc2)CC1
10 | 0.196 | 0.104 | O=C(/C=C/c1ccc(O)cc1)N1CCC(Cc2ccccc2)CC1

Row | SMILES | IC50 [1] [µM] | IC50 [2] [µM]
11 | O=C(c1cc2ccc(O)cc2[nH]1)N1CCC(c2ccccc2)CC1 |  | > 8
12 | O=c1[nH]c2ccc([S+]([O-])CCN3CCC(Cc4ccc(F)cc4)CC3)cc2o1 (stereo not drawn) [BESONPRODIL] | 0.004 | 0.008
